Data from patent US6767738B1, “Method of isolating adult mammalian CNS-derived progenitor stem cells using density gradient centrifugation” (The Salk Institute for Biological Studies, priority 1999, dated 2004).

Tested on: clonal stem cells (AP14)
Assay: BrdU labeling of ACSC cultures during RA treatment
Type: cell-based, rat
Procedure: Cell Culture. For proliferating conditions, clonal stem cells (AP14) were cultured in Dulbecco's Modified Eagles Medium/Ham's F12 (DMEM/F12, 1:1) containing N2 supplement (Gibco BRL, Gaithersburg, Md.) and 20 ng/ml rhFGF-2 (provided by A. Baird, Prizm Pharmaceuticals Inc., La Jolla, Calif.). Culture dishes (Becton Dickinsin Labware, Lincoln Park, N.J.) were coated with polyomithine and mouse laminin as previously described by Ray, et al., Proliferation, differentiation and long-term culture of primary hippocampal neurons, Proc Natl Acad Sci USA 90:3602-3606 (1993). For differentiation experiments, cells were plated into polyornithine/laminin coated glass chamber slides (Nunc, Naperville, Ill.) at a density of 2.5—103 per cm2. The cells were incubated for 24 hrs in normal N2 medium containing 20 ng/ml FGF-2, and then the medium was replaced by N2 medium containing 0.5% […] (FBS) and 0.01% DMSO (control solvent) or […] all-trans retinoic acid (Sigma, St. Louis, Mo.). For further differentiation, the medium was replaced by N2 medium containing 0.5% FBS and one of the following: sterile water (control solvent), mouse 2.55 NGF (50 ng/ml, Boehringer Mannheim, Indianapolis, Ind.), rhBDNF (20 ng/ml, Alomone Labs, Jerusalem, Israel), rhNT-3 (40 ng/ml, Genentech, South San Francisco, Calif.). The medium was replaced every two days. For inhibition of the tyrosine kinase activity of the Trk receptors, K-252a (100 nM, Calbiochem, San Diego, Calif.) was added to the medium.
BrdU Labeling and Visualization. Cells plated as described above were treated with BrdU ([…], Sigma) for 24 hrs before fixation. Then the cells were fixed with tris-buffered 4% paraformaldehyde for 15 min. incubated with tris-buffered 0.6% H2O2 for 30 min, and treated with 50% formamide/2×SSC for 2 hrs followed by a 30-min incubation in 2N HCl, and a neutralization in 0.1M borate (Na2B4O7) for 10 min. Cells were incubated with a-BrdU monoclonal antibody (1:400, Boehringer Mannheim) overnight at 4° C., and incubated with biotinylated horse anti-mouse secondary antibody (1:80, Jackson Immunoresearch, West Grove, Pa.) for 1 hr. Reactive cells were visualized with the avidin/biotin-peroxidase system (Vectastain Elite, Vector Laboratories, Burlingame, Calif.) and diaminobenzidine.
Upregulation of p21 was accompanied by a decrease in the number of dividing cells as evidenced by BrdU incorporation. Cultures were treated with RA for 2, 4, or 6 days and then pulsed with […] bromodeoxyuridine (BrdU) for 24 hrs on the last day of RA treatment. Cells were then fixed and processed for BrdU immunocytochemistry. In the presence of RA, there was a dramatic change in cell morphology, and a gradual decrease in the total number and proportion of BrdU-positive cells. Within 6 days of RA treatment, most of the phase-bright cells extended elaborate processes and only 29% of the cells were BrdU-positive, whereas in the serum-alone control treatment most of the cells continued to proliferate and retained rudimentary process morphology. In proliferative FGF-2-stimulated controls, more than 95% of the cells were labeled every 24 hrs.
Although proliferation decreased in response to RA, it is possible that the few remaining proliferating cells were contributing to the increase in neurons observed following RA treatment. To determine if RA induced a selective expansion of neuronal precursors, parallel cultures were treated with RA for 6 days followed by an additional 6 days in 0.5% serum alone. One set of cultures was fixed on days 2, 4, 6, 8, 10, and 12 and stained with 4,6-diamidino-2-phenylindole (DAPI) and the total number of nuclei was counted. Additional cultures were pulsed with BrdU for 72 hrs on days 0-3, 3-6, 6-9 or 9-12. The cultures were then fixed on day 12 and evaluated for the proportion of Map2ab-IR cells that had incorporated BrdU. […]

| Compound | Map2ab-IR neurons that divided (BrdU) (after 6 days of RA treatment) [%] | Map2ab-IR cells that divided (BrdU) (days 3-6 of RA treatment) | neurons labeled with BrdU (first 24 hours upon application of RA) | neurons labeled with BrdU (second day following RA treatment) | Map2ab-IR cells that divided (BrdU) (three days immediately following start of RA treatment, 72 hr pulse) | BrdU-positive cells (within 6 days of RA treatment, 24 hr BrdU pulse) [%] | cells labeled every 24 hrs (BrdU) (proliferative FGF-2-stimulated controls) |
| --- | --- | --- | --- | --- | --- | --- | --- |
| CC1=C(/C=C/C(C)=C/C=C/C(C)=C/C(=O)O)C(C)(C)CCC1 [RA, all-trans retinoic acid] | < 0.5 | Less than 5% | 19 +/− 3% | 3 +/− 1% | Less than one third | 29 | – |
| FGF-2: basic fibroblast growth factor, human recombinant, prepared in E. coli | – | – | – | – | – | – | more than 95% |
